Patent publication US20030144204A1, “Akt-based inducible survival switch” (Baylor College of Medicine, priority 2001, published 2003)

How the values were obtained:
endogenous Akt and iAkt = assay: Akt phosphorylation in Jurkat.iAkt cells after kinase inhibitor pretreatment; format: cell-based, human; conditions: 30 min inhibitor pretreatment, then AP22783 30 min
Experimental: Jurkat.iAkt cells were serum starved for 24 hours followed by 30 min pretreatment with PI3K inhibitors, wortmannin and LY294002, or MEK inhibitor, PD98059, as a control. After inhibitor pretreatment, AP22783 was added to the media for another 30 min to mobilize membrane recruitment of iAkt.

Akt (T308 or S473 site) = assay: Western blot of Akt phosphorylation in transfected 293T cells; format: cell-based, human; conditions: M-FRB12 plus F3-ΔPH.Akt, serum starved 24 hours, as early as 30 min after drug addition
Experimental: 293T cells seeded in 6-well plates were transiently transfected with 2 μg of different expression constructs in 6 μl FuGENE6 (Boehringer-Mannheim, Indianapolis, Ind.) in Opti-MEM-I medium for 24 hours followed by serum starvation for an additional 24 hours. Cells were then treated with different agents and harvested at different time points. After washing (2×) in ice-cold PBS, cell pellets were lysed in RIPA buffer containing protease inhibitors (CytoSignal, Irvine, Calif.). Equal amounts of protein from each sample were separated on 10% SDS-PAGE gels and transferred to PVDF membrane (Amersham Pharmacia Biotech, Piscataway, N.J.). Phospho-specific antibodies against Akt (T308 or S473 site) (Cell Signaling, Beverly, Mass.) were used for measuring Akt phosphorylation, and the signal was detected by AP-conjugated secondary antibodies (NEB, Beverly, Mass.) and CDP-Star chemiluminescence reagent (NEN life science, Boston, Mass.).
Briefly, 293T cells were transiently co-transfected with M-FRB1 2 and F3-ΔPH.Akt expression plasmids. After 24 hours, transfected cells were serum starved for another 24 hours and then treated with AP22783.

F3-ΔPH.Akt kinase = assay: Immunoprecipitation and in vitro Akt kinase assay (GSK3α/β crosstide); format: biochemical; conditions: Jurkat.iAkt serum starved 24 hours, treated 30 min, anti-HA immunoprecipitate
Experimental: Jurkat.iAktb were serum starved for 24 hours followed by treatment with AP22783 or serum for 30 min. Cells were then lysed in a lysis buffer provided with the Akt Kinase Assay kit (Cell Signaling, Beverly, Mass.), and Fpk3-ΔPH.AKT-E was immunoprecipitated with polyclonal anti-HA antibody. Antibody-antigen complexes were washed three times in lysis buffer and once in kinase buffer. In vitro kinase assays for Akt were performed using a GSK3α/β “crosstide”. The extent of crosstide phosphorylation was determined by anti-GSKα/β immunoblotting according to the manufacturer's protocol.
To further measure the induction of Akt enzymatic activity, Jurkat.iAkt cells were serum starved for 24 hours and thereafter treated with AP22783 or serum for 30 min. Chimeric F3-ΔPH.Akt.-kinase was immunoprecipitated with the anti-HA antibody and Akt kinase activity was measured using an in vitro kinase assay that uses a GSK3α/β “crosstide” as a substrate. The level of phosphorylated GSK3 crosstides was determined by immunoblotting with phospho-specific antibody against GSK3-α21/β9.

Jurkat.iAkt cells = assay: Apoptosis by propidium iodide staining and flow cytometry (hypodiploid cells); format: cell-based, human; conditions: for etoposide-induced cell death: etoposide 0.3-100 μM, 12 hours
Experimental: Jurkat.iAkt were serum starved for 24 hours followed by pre-treatment with AP22783 in 0, 2 or 10% FBS for 40 min. After incubation with apoptosis-inducing stimuli for the periods indicated, cells were harvested and washed twice in ice-cold PBS and fixed in 70% ethanol. Cells were stained in 50 μg/ml propidium iodide and 100 μg/mlRNase A for 30 min at 37° C., and hypodiploid cells were quantitated by flow cytometry using a Beckman-Coulter EPICS XL-MCL.
Jurkat.iAkt cells were given various apoptotic insults in the presence or absence of rapalogs. Initially, the protective effects of iAkt were studied on staurosporine (STS)-induced apoptosis. […] Following serum starvation for 24 hours, Jurkat.iAkt cells were treated with 0, 0.5, or 2.0 μM STS with or without AP22783 (400 nM) for 6 hours in the absence of serum. Cell death was monitored using propidium iodide (PI) staining and flow cytometry (FCM) by quantitation of subdiploid cells.
The effects of AP22783 treatment following PI3K inhibition of Jurkat.iAkt cell were studied.
Finally, the anti-apoptotic effects of iAkt on protection from direct DNA damaging agents were examined. The anti-tumor agent, etoposide (VP16), is widely used as a chemotherapeutic drug that works by inhibiting DNA topoisomerase II, which can induce apoptosis in a variety of cell types. […] Again, the experiments were carried out in two different culture conditions with low or high FBS levels.

[1] = system: caspase-3 and PARP in Jurkat.iAkt cells; assay: Caspase-3 activation and PARP cleavage by immunoblotting
Experimental: Next, caspase-3 activation and PARP substrate cleavage were measured by immunoblotting.

NF-κB = assay: NF-κB/SEAP reporter assay in Jurkat-TAg cells; format: cell-based, human; conditions: R0318220 1 μM

COc1cccc(-c2cc(=O)c3ccccc3o2)c1N [PD98059]
endogenous Akt phosphorylation at T308 (endogenous Akt and iAkt): no discernable effect
iAkt phosphorylation (endogenous Akt and iAkt): no discernable effect

O=C(O)COc1ccccc1O [AP22783]
phosphorylation of iAkt at S473 and T308 (Akt (T308 or S473 site)): greatly stimulated
Akt kinase activity (GSK3 crosstide phosphorylation) (F3-ΔPH.Akt kinase): associated with GSK3 phosphorylation
apoptotic cells (Jurkat.iAkt cells; 2 μM STS with AP22783 400 nM, 6 hours, no serum, without background correction): 17%
PI3K inhibitor-induced cell death (Jurkat.iAkt cells; AP22783 400 nM with wortmannin or LY294002, 2% or 10% FBS, 9 hours): almost totally blocked
CH-11-triggered apoptosis (Jurkat.iAkt cells; AP22783 400 nM, 2% or 10% FBS, 6 hours): rescued cells from CH-11-triggered apoptosis
etoposide-induced cell death (Jurkat.iAkt cells; AP22783 400 nM, high FBS): reduced etoposide-induced cell death efficiently
etoposide-induced cell death (Jurkat.iAkt cells; AP22783 400 nM, low FBS): lesser, but reproducible level of protection
STS-induced toxicity (apoptosis) (Jurkat.iAkt cells; low-dose STS (0.5 μM) with AP22783 400 nM, 6 hours, no serum): fully blocked
STS-induced caspase-3 activation ([1]; with AP22783): blocked
high-dose STS-induced PARP cleavage ([1]; with AP22783): reduced
low-dose STS-induced PARP cleavage ([1]; with AP22783): blocked

CN[C@@H]1C[C@H]2O[C@@](C)([C@@H]1OC)n1c3ccccc3c3c4c(c5c6ccccc6n2c5c31)C(=O)NC4 [STS, staurosporine]
apoptotic cells (Jurkat.iAkt cells; 2 μM STS, 6 hours, no serum, without AP22783, without background correction): 36%
cell death (Jurkat.iAkt cells; STS 0, 0.5 or 2.0 μM, 6 hours, no serum): induced cell death in a dose-response manner
apoptotic cells (Jurkat.iAkt cells; low-dose STS (0.5 μM), 6 hours, no serum, without AP22783): 19.4%
procaspase-3 level ([1]; STS at high-dose): significant reduction of procaspase-3
PARP cleavage ([1]; STS at low- and high-dose): dramatic PARP cleavage

Cn1cc(C2=C(c3cn(CCCSC(=N)N)c4ccccc34)C(=O)NC2=O)c2ccccc21 [R0318220]
NF-κB activation by M-Akt plus PKC (NF-κB): complete inhibition of NF-κB
